Assay results as given in patent US20110293676A1, “Oral Cephalotaxine Dosage Forms” (ChemGenex Pharmaceuticals, Inc., priority 2007, published 2011).

What was measured:
[1] = Pharmacokinetic study of homoharringtonine in mice, oral vs subcutaneous, plasma HHT content; type: in vivo, male CD-1 mice; parameters: Tmax / t-½: unit not given here; conditions: for Concentration of HHT in mouse sodium heparin plasma: single dose; for BA po/sc % / Cmax / Tmax / AUC / t-½: mouse; for AUC / t-½: WINNONLIN NCA model
Experimental: To evaluate the potential for the development of an oral formulation of homoharringtonine, a pharmacokinetic study was performed in mice. Homoharringtonine was given, at 2 doses, by either oral or subcutaneous routes to male CD-1 mice. After a single administration, blood was collected from the tail vein and analyzed for homoharringtonine content. The animal dosing was performed by Murigenics (Berkeley, Calif.) and the analysis of sera was performed by PHARMout (Sunnyvale, Calif.). […] This bioavailability is considered very good.
Homoharringtonine was manufactured by Stragen for ChemGenex Pharmaceuticals. 5 mg of lyophilized homoharringtonine was provided in a glass vial and was stable at room temperature. The vehicle was 0.9% sodium chloride supplied with the test agent in a separate vial. 27 male CD-1 mice, 8-10 weeks old (Charles River Laboratories) were used for this study. 24 mice were used for dosing, and 3 mice were used as naïve controls.
On the day of the study, 5 ml of saline were added to the 5 mg vial to make a stock of 1 mg/ml HHT. The amount administered for each mouse was based on weight, using a dose volume of 4 ml/kg. The dosing administration was performed according to Table 1.
Test subjects were dosed once. The enzyme blocker was provided in two separate tubes (A & B) Immediately prior to blood collection, 20 μL each of A and B were aliquoted into a small tube (to yield 40 μL of enzyme inhibitor).
Blood from 3 naïve mice was collected for a 0 timepoint. Approximately 50 μL of whole blood per animal (n=3 mice per time point) was collected into heparinized capillary tubes. Heparanized blood was transferred into tubes containing 40 μL of enzyme inhibitor. Samples were clearly marked by PK timepoint and group. Blood was stored on ice until centrifugation. There were 6 mice treated at each dose, but blood was pooled from 3 mice per time point so that each mouse had blood collected at every other timepoint. There were the following timepoints: 0, 15 min, 30 min, 2 hr, 4 hr and 8 hr after the administration of homoharringtonine. There were three samples collected for the T=0 from naïve mice. There were 5 samples collected for each dose, corresponding to the timepoints, 15 min, 30 min, 2 hr, 4 hr and 8 hr after the administration of homoharrigntonine. There were 2 doses for each route, and 2 routes of administration, so there were a total of 20 samples collected from treated mice. Plasma tubes were spun to prepare plasma, frozen to −80° C. and shipped on dry ice to PHARMout for bioanalytical work up.
The Cmax of the oral doses was 4 and 30 ng/mL for the 410 and 1600 μg/kg oral doses, respectively.

[2] = Observation for mortality, morbidity and adverse events in the mouse pharmacokinetic study; type: in vivo, male CD-1 mice; conditions: single dose 0.41 or 1.6 mg/kg p.o. or s.c., observed until 7 days after last blood collection
Experimental: Animals were observed twice daily (in the morning and in the evening) for mortality and morbidity beginning at the time of arrival from the vendor until the scheduled sacrifice 7 days after the last blood collection. Prior to dosing, each animal was removed from its cage and observed for signs of poor health and abnormal behavior. All animals were weighed prior to dosing.
No unscheduled sacrifices or deaths were recorded. Animals were sacrificed via CO2 7 days after the completion of blood draws.

## COC(=O)C[C@](O)(CCCC(C)(C)O)C(=O)O[C@@H]1C(OC)=C[C@]23CCCN2CCc2cc4c(cc2[C@H]13)OCO4 [HHT, cephalotaxine, 4-methyl-2-hydroxy-2-(4-hydroxy-4-methylpentyl) butanediocate ester]
[1]; Group 1: 0.41 mg/kg p.o., 15 min
  Concentration of HHT in mouse sodium heparin plasma: 3.54 ng/mL
[1]; Group 1: 0.41 mg/kg p.o., 30 min
  Concentration of HHT in mouse sodium heparin plasma: 3.59 ng/mL
[1]; Group 1: 0.41 mg/kg p.o., 60 min
  Concentration of HHT in mouse sodium heparin plasma: 3.85 ng/mL
[1]; Group 1: 0.41 mg/kg p.o., 120 min
  Concentration of HHT in mouse sodium heparin plasma: 4.29 ng/mL
[1]; Group 1: 0.41 mg/kg p.o., 240 min
  Concentration of HHT in mouse sodium heparin plasma: 1.81 ng/mL
[1]; Group 1: 0.41 mg/kg p.o., 480 min
  Concentration of HHT in mouse sodium heparin plasma: 1.65 ng/mL
[1]; Group 2: 0.41 mg/kg s.c., 15 min
  Concentration of HHT in mouse sodium heparin plasma: 20.4 ng/mL
[1]; Group 2: 0.41 mg/kg s.c., 30 min
  Concentration of HHT in mouse sodium heparin plasma: 11.2 ng/mL
[1]; Group 2: 0.41 mg/kg s.c., 60 min
  Concentration of HHT in mouse sodium heparin plasma: 6.20 ng/mL
[1]; Group 2: 0.41 mg/kg s.c., 120 min
  Concentration of HHT in mouse sodium heparin plasma: 3.59 ng/mL
[1]; Group 2: 0.41 mg/kg s.c., 240 min
  Concentration of HHT in mouse sodium heparin plasma: 2.44 ng/mL
[1]; Group 2: 0.41 mg/kg s.c., 480 min
  Concentration of HHT in mouse sodium heparin plasma: BQL (Below the quantification limit (1.00 ng/mL))
[1]; Group 3: 1.6 mg/kg p.o., 15 min
  Concentration of HHT in mouse sodium heparin plasma: 6.58 ng/mL
[1]; Group 3: 1.6 mg/kg p.o., 30 min
  Concentration of HHT in mouse sodium heparin plasma: 8.87 ng/mL
[1]; Group 3: 1.6 mg/kg p.o., 60 min
  Concentration of HHT in mouse sodium heparin plasma: 29.9 ng/mL
[1]; Group 3: 1.6 mg/kg p.o., 120 min
  Concentration of HHT in mouse sodium heparin plasma: 9.18 ng/mL
[1]; Group 3: 1.6 mg/kg p.o., 240 min
  Concentration of HHT in mouse sodium heparin plasma: 5.52 ng/mL
[1]; Group 3: 1.6 mg/kg p.o., 480 min
  Concentration of HHT in mouse sodium heparin plasma: 4.19 ng/mL
[1]; Group 4: 1.6 mg/kg s.c., 15 min
  Concentration of HHT in mouse sodium heparin plasma: 54.4 ng/mL
[1]; Group 4: 1.6 mg/kg s.c., 30 min
  Concentration of HHT in mouse sodium heparin plasma: 15.4 ng/mL
[1]; Group 4: 1.6 mg/kg s.c., 60 min
  Concentration of HHT in mouse sodium heparin plasma: 35.3 ng/mL
[1]; Group 4: 1.6 mg/kg s.c., 120 min
  Concentration of HHT in mouse sodium heparin plasma: 6.38 ng/mL
[1]; Group 4: 1.6 mg/kg s.c., 240 min
  Concentration of HHT in mouse sodium heparin plasma: 7.72 ng/mL
[1]; Group 4: 1.6 mg/kg s.c., 480 min
  Concentration of HHT in mouse sodium heparin plasma: 3.10 ng/mL
[1]; 410 ug/kg, oral compared with subcutaneous dosing
  BA po/sc %: 76%
[1]; 1600 ug/kg, oral based on the subcutaneous dose
  BA po/sc %: 77%
[1]; po, 410 ug/kg (1.2 mg/m2)
  Cmax: 4 ng/mL
  Tmax: 120
  AUC: 1217 ng·min/mL
  t-½: 297
[1]; po, 1600 ug/kg (4.8 mg/m2)
  Cmax: 30 ng/mL
  Tmax: 60
  AUC: 3966 ng·min/mL
  t-½: 341
[1]; sc, 410 ug/kg (1.2 mg/m2)
  Cmax: 20 ng/mL
  Tmax: 15
  AUC: 1599 ng·min/mL
  t-½: 215
[1]; sc, 1600 ug/kg (4.8 mg/m2)
  Cmax: 54 ng/mL
  Tmax: 15
  AUC: 5087 ng·min/mL
  t-½: 306
[2]
  mortality and morbidity: No mortalities or signs of morbidity were observed
